Source: patent US20060235062A1, “Novel heterocyclic analogs of diphenylethylene compounds” (THERACOS, INC., priority 2002, published 2006)

What was measured:
PPAR-gamma = molecular target: T1, PPAR-gamma (Homo sapiens, UniProt P37231); conditions: Rocchi et al, Mol Cell 8:737-47, 2001; cited from earlier work
T1 sequence (P37231 1-505): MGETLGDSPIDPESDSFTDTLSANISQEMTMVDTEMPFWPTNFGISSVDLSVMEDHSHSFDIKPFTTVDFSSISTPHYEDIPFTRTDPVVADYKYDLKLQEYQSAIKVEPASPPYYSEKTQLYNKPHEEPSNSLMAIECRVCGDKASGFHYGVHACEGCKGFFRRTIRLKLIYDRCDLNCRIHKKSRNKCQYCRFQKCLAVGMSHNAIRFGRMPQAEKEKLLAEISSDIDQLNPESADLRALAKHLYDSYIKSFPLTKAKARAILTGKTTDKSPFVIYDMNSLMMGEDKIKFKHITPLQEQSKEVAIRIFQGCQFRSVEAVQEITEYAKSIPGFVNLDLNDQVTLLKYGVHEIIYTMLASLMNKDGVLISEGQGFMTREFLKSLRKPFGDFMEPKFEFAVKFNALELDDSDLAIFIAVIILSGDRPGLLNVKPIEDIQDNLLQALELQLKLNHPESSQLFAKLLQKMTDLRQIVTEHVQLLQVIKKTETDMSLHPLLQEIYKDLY

3T3-L1 adipocytes = assay: Glucose uptake in differentiated 3T3-L1 adipocytes; format: cell-based
Protocol: Referring to FIG. 8 glucose uptake in 3T3-L1 differentiated adipocytes was measured after treatment with the test compound. The assay was conducted according to the method of Tafuri, Endocrinology, 137, 4706-4712 (1996). The serum-starved cells were treated with the test compound for 48 hours at different concentrations, then washed and incubated in glucose-free media for 30 minutes at 37° C. Then ^14C-deoxyglucose was added and uptake was monitored for 30 minutes under incubation. After washing, the cells were lysed (0.1% SIDS) and counted.
Basal glucose uptake was measured in differentiated 3T3-L1 adipocytes following the protocol of Tafuri (6) with modifications. Briefly, 3T3-L1 fibroblasts, obtained from ATCC (Manassas, Va.), were differentiated to adipocytes by treating cells with porcine insulin (1 μg/ml for 4 days), dexamethasone (0.25 μM for first 2 days) and isobutyl methyl xanthine (IBMX, 0.5 mM for first 2 days) (all from Sigma Chemicals, St Louis, Mo.) following the protocol of Frost and Lane (7). Differentiated adipocytes were incubated in Dulbecco's Modified Eagle Medium (DMEM) containing 10% fetal bovine serum (GibcoBRL, Gaithersburg, Md.) with various concentrations of Compound 11 or vehicle (0.1% DMSO) for 48 h in 24-well plates, in triplicate. Cells were washed with phosphate buffered saline (PBS, 150 mM NaCl, 1 mM KH2PO4, 3 mM Na2HPO4; pH 7.4) and incubated in glucose-free DMEM for 2 h at 37° C. The cells were washed 3 times with Krebs Ringer Phosphate Buffer (KRP). Glucose uptake was initiated by addition of 0.25 μCi 2-^14C(U)-deoxy-D-glucose (300 μCi/mmol, American Radiolabeled Chemicals Inc., St Louis, Mo.) per well and the cells incubated for 10 min at room temperature in the presence of 0.1 mmol cold 2-deoxy-D-glucose. Finally, the cells were washed three times with ice-cold PBS containing 10 mM cold glucose, lysed with 0.5% SDS, and counted in a scintillation counter (Beckman LS6500).

COX-2 = molecular target: T2, COX-2 (Mus musculus, UniProt Q05769); assay: LPS-induced COX-2 activity in RAW cells (PGE2 production); format: cell-based; conditions: 0.1-100 μM, FIG. 12
T2 sequence (Q05769 18-604): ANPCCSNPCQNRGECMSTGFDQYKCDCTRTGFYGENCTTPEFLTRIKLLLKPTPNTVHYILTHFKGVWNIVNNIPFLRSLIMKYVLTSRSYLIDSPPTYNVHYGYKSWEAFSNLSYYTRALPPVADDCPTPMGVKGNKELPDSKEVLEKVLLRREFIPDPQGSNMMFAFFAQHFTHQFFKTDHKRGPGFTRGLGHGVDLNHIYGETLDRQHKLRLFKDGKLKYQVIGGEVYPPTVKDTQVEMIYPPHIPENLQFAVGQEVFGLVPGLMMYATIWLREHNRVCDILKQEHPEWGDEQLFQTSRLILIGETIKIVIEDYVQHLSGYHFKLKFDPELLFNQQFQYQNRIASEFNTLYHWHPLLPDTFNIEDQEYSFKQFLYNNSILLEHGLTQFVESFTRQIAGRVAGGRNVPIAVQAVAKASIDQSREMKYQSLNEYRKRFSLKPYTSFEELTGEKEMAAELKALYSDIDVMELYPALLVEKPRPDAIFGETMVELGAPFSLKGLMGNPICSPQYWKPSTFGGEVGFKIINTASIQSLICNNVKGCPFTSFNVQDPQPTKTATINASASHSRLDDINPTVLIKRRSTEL
Protocol: (§1) After 1 hour LPS (0.1 pg/mL) was added and cells were incubated an additional 6 hours. Cell supernatant was then collected, aliquoted and frozen at −70° C., and aliquots used to determine COX-2 and COX-1 activity. Compound 11, but not rosiglitazone, inhibited the activity of COX-2 (as measured by PGE2 production in a 50 μl sample).

COX-1 = molecular target: T3, COX-1 (Mus musculus, UniProt P22437); assay: COX-1 activity in RAW cells; format: cell-based; conditions: 0.1-100 μM
T3 construct: aliquots used to determine COX-2 and COX-1 activity; endogenous in cells; host or cells: RAW (RAW 264.7) cells
T3 sequence (P22437 27-602): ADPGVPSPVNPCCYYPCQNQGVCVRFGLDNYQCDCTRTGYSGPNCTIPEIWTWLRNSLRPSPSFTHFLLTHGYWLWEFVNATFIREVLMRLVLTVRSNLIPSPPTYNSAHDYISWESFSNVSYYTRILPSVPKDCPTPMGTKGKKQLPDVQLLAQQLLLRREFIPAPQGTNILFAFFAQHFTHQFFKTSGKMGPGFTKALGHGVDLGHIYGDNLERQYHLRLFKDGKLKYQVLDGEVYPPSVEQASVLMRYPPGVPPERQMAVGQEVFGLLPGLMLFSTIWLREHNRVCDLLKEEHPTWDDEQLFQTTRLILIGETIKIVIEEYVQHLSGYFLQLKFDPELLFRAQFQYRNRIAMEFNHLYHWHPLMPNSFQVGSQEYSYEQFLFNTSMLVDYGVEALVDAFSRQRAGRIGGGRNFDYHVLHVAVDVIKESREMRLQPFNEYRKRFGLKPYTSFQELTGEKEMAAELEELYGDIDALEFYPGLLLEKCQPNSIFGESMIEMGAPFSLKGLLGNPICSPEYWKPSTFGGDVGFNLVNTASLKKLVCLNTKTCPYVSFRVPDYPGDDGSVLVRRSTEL
Protocol: as §1

IkappaB = assay: LPS-stimulated phosphorylation of IkappaB in RAW 264.7 cells; format: cell-based; conditions: RAW 264.7 cells, 3, 10 or 30, LPS plus IFN-gamma, anti-phospho-IkappaB blot
NF-kB p65 = NF-kB p65 activation in LPS-stimulated RAW cells (ELISA); format: cell-based; conditions: 10 μM, 1 μg/ml LPS 15 min, FIG. 15
HepG2 cells = assay: Glycogen synthesis in HepG2 cells; format: cell-based
db/db mice = conditions: db/db mice, 50 mg/kg/day orally, 14 days, FIG. 16A
3T3-L1 fibroblasts = assay: Adipogenesis (triglyceride accumulation) in 3T3-L1 fibroblasts; conditions: 3T3-L1 fibroblasts, 0.1, 1, 10 μM, no dexamethasone, insulin, IBMX, FIG. 23A
Protocol: After two days of growth in 6-well plates, cells were treated either with vehicle (0.1% DMSO) or with compounds for ten days. Fresh medium with compounds or vehicle was replenished every 48 h. Cells were washed with PBS twice and fixed in 10% formalin (Sigma) in PBS. After washing in PBS, cells were stained with freshly diluted Oil Red O in isopropanol for 1 h at room temperature. The cells were washed five times with PBS and visualized under an Olympus BH2 microscope. Quantitative accumulation of triglyceride was also measured under similar experimental conditions, except in this case cells were plated in 100-mm tissue culture dishes. Triglyceride was extracted with methanol:chloroform (2:1) mixture. […] Extracted triglyceride was measured by a colorimetric assay (GPO-Trinder, Sigma) according to manufacturer instructions.
After 14 days cells were stained with Oil Red O, counterstained with methylene blue for visual assessment (FIG. 23B) and assayed for triglyceride accumulation.

Compound | less affinity for PPAR-gamma (PPAR-gamma) | effect on insulin-stimulated glucose uptake (3T3-L1 adipocytes; 5 μM with increasing insulin, FIG. 20B) | % Glucose uptake 0.1 μm (3T3-L1 adipocytes; 0.1 μm, average of quadruplicate ± SD) | % Glucose uptake 1.0 μm (3T3-L1 adipocytes; 1.0 μm, average of quadruplicate ± SD) | inhibition of COX-2 activity (PGE2 production) (COX-2) | inhibition of COX-1 activity (COX-1) | inhibition of the phosphorylation of IkappaB (IkappaB) | inhibition of the activation of NF-kB (p65) (NF-kB p65) | glycogen synthesis, decrease (HepG2 cells; HepG2, 10 μM, 48 h, FIG. 25A) | increase in glycogen synthesis over baseline (HepG2 cells; HepG2, concentrations higher than 30 μM, ± SD, data not shown) | blood glucose lowering effect (db/db mice) | maximal triglyceride accumulated, increase over control (3T3-L1 fibroblasts)
CC(C)C[C@H](NC(=O)OCC1c2ccccc2-c2ccccc21)C(=O)O [FMOC-L-Leucine] | approximately 400 fold | – | – | – | – | – | – | – | – | – | – | –
CN(CCOc1ccc(CC2SC(=O)NC2=O)cc1)c1ccccn1 (stereo not drawn) [rosiglitazone, reference compound] | – | additive, not synergistic | 204.2 ± 8.5 % basal of the non treated cells | 214.7 ± 36.5 % basal of the non treated cells | not | Neither compound inhibited | not | did not inhibit | 0.9 fold | 1.4±0.06 fold | dramatic, comparable blood glucose lowering effects | 9.22 fold
